Like-named read-outs stand apart in the source and are kept apart here.
Details: amide bond, BOP, DCM, 25.0 °C

SMILES	ring closure, yield of all isomers (from COC(=O)[C@H](Cc1cccc(OCCN)c1)NC(=O)c1cc(C(=O)O)cc(N(C)S(C)(=O)=O)c1, 2.0 h, 2 steps) [%]	ring closure, yield of all isomers (from COC(=O)C(N)Cc1cccc(OC[C@@H](NC(=O)c2cc(C(=O)O)cc(N(C)S(C)(=O)=O)c2)c2ccccc2)c1, 1.76 mM, 72.0 h) [%]
COC(=O)[C@@H]1Cc2cccc(c2)OCCNC(=O)c2cc(cc(N(C)S(C)(=O)=O)c2)C(=O)N1	30	–
COC(=O)C1Cc2cccc(c2)OC[C@H](c2ccccc2)NC(=O)c2cc(cc(N(C)S(C)(=O)=O)c2)C(=O)N1 (some centres unmarked)	–	62
